Reference: patent US12655116B2, “Substituted isophthalic acid diamides” (Bayer Aktiengesellschaft, priority 2020, dated 2026)

Experiments:
AMARE [1] = assay: Pre-emergence herbicidal action against AMARE; assay type: in vivo, Amaranthus retroflexus; conditions: for pest or weed control at 20 g/ha / pest or weed control at 80 g/ha: Amaranthus retroflexus, 504 h
Summary of the method: (§1)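 Pre-emergence soil-surface spray of formulated compound (WP or EC; 600 to 800 l/ha; 0.2% wetting agent) over seeds sown in sandy loam. After 3 weeks under greenhouse conditions, damage is estimated visually in percent against untreated plants.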

ALOMY = assay: Pre-emergence herbicidal action against ALOMY; assay type: in vivo, Alopecurus myosuroides; conditions: Alopecurus myosuroides, 504 h, pre-emergence
Summary of the method: as §1

MATIN [2] = assay: Pre-emergence herbicidal action against MATIN; assay type: in vivo, Matricaria inodora; conditions: for pest or weed control at 20 g/ha / pest or weed control at 80 g/ha: Tripleurospermum inodorum, 504 h
Summary of the method: as §1

VERPE [3] = assay: Pre-emergence herbicidal action against VERPE; assay type: in vivo, Veronica persica; conditions: dosage 80 g/ha; for pest or weed control at 80 g/ha: Veronica persica, 504 h
Summary of the method: as §1

DIGSA [4] = assay: Pre-emergence herbicidal action against DIGSA; assay type: in vivo, Digitaria sanguinalis; conditions: for pest or weed control at 20 g/ha / pest or weed control at 80 g/ha: Digitaria sanguinalis, 504 h
Summary of the method: as §1

ECHCG [5] = assay: Post-emergence herbicidal action against ECHCG; assay type: in vivo, Echinochloa crus-galli; conditions: dosage 20 g/ha; for pest or weed control at 20 g/ha: Echinochloa crus-galli, 504 h
Summary of the method: (§2)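 Spray, one-leaf stage: WP or EC compound in water, 600–800 l/ha, 0.2% wetting agent. Plants held about 3 weeks in the greenhouse, then visually rated in percent of kill compared with untreated controls.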

ABUTH [6] = assay: Post-emergence herbicidal action against ABUTH; assay type: in vivo, Abutilon theophrasti; conditions: Abutilon theophrasti, 504 h, visual assessment about 3 weeks after treatment vs untreated controls; for pest or weed control at 5 g/ha: dosage 5 g/ha; for pest or weed control at 20 g/ha: dosage 20 g/ha
Summary of the method: as §2

VERPE [7] = assay: Post-emergence herbicidal action against VERPE; assay type: in vivo, Veronica persica; conditions: 20 g/ha; for pest or weed control at 20 g/ha: Veronica persica, 504 h
Summary of the method: as §2

PHBPU [8] = assay: Pre-emergence herbicidal action against PHBPU; assay type: in vivo, Pharbitis purpurea; conditions: dosage 80 g/ha; for pest or weed control at 80 g/ha: Ipomoea purpurea, 504 h
Source text: Seeds of monocotyledonous and dicotyledonous weed plants and crop plants are laid out in sandy loam soil in wood-fiber pots and covered with soil. The compounds of the invention, formulated in the form of wettable powders (WP) or as emulsion concentrates (EC), are then applied to the surface of the covering soil in the form of an aqueous suspension or emulsion at a water application rate equivalent to 600 to 800 l/ha, with addition of 0.2% wetting agent. After the treatment, the pots are placed in a greenhouse and kept under good growth conditions for the trial plants. The damage to the test plants is scored visually after a test period of 3 weeks by comparison with untreated controls (herbicidal activity in percent (%): 100% activity=the plants have died, 0% activity=like control plants). […] The tables below illustrate, in an illustrative manner, the post-emergence herbicidal action of the compounds of the invention, the herbicidal activity being stated in percent.

VIOTR [9] = assay: Pre-emergence herbicidal action against VIOTR; assay type: in vivo, Viola tricolor; conditions: for pest or weed control at 20 g/ha / pest or weed control at 80 g/ha: Viola tricolor, 504 h
Summary of the method: as §1

VIOTR [10] = assay: Post-emergence herbicidal action against VIOTR; assay type: in vivo, Viola tricolor
Summary of the method: as §2

AVEFA = assay: Pre-emergence herbicidal action against AVEFA; assay type: in vivo, Avena fatua; conditions: Avena fatua, 504 h; 80 g/ha, pre-emergence
Summary of the method: as §1

DIGSA [11] = assay: Post-emergence herbicidal action against DIGSA; assay type: in vivo, Digitaria sanguinalis
Summary of the method: as §2

AMARE [12] = assay: Post-emergence herbicidal action against AMARE; assay type: in vivo, Amaranthus retroflexus; conditions: 20 g/ha, visual assessment about 3 weeks after treatment, 100% = plants have died, 0% = like control plants
Summary of the method: as §2

ECHCG [13] = assay: Pre-emergence herbicidal action against ECHCG; assay type: in vivo, Echinochloa crus-galli; conditions: 80 g/ha; for pest or weed control at 80 g/ha: Echinochloa crus-galli, 504 h
Summary of the method: as §1

ABUTH [14] = assay: Pre-emergence herbicidal action against ABUTH; assay type: in vivo, Abutilon theophrasti; conditions: for pest or weed control at 80 g/ha / pest or weed control at 20 g/ha: Abutilon theophrasti, 504 h; for pest or weed control at 20 g/ha: read-out: Pre-emergence action against ABUTH (herbicidal activity in percent)
Summary of the method: as §1

SETVI = assay: Pre-emergence herbicidal action against SETVI; assay type: in vivo, Setaria viridis; conditions: for pest or weed control at 20 g/ha / pest or weed control at 80 g/ha: Setaria viridis, 504 h; for pest or weed control at 20 g/ha: dosage 20 g/ha
Summary of the method: as §1

MATIN [15] = assay: Post-emergence herbicidal action against MATIN; assay type: in vivo, Matricaria inodora
Summary of the method: as §2

PHBPU [16] = assay: Post-emergence herbicidal action against PHBPU; assay type: in vivo, Pharbitis purpurea
Summary of the method: as §2

[17] = 20 g/ha, scored visually after 3 weeks vs untreated controls, 100% = plants have died, 0% = like control plants
[18] = 80 g/ha, scored visually after 3 weeks vs untreated controls, 100% = plants have died, 0% = like control plants
[19] = 80 g/ha, scored visually after 3 weeks vs untreated controls (100% = plants have died, 0% = like control plants)
[20] = Digitaria sanguinalis, 504 h, 20 g/ha
[21] = dosage 20 g/ha, scored visually after 3 weeks vs untreated controls, 100% = plants have died, 0% = like control plants

CCn1nnnc1NC(=O)c1ccc(C(F)F)c(C(=O)NC2CC2)c1Br [Example 2-227]
pest or weed control at 20 g/ha (AMARE [1]; [17]): 100% | pest or weed control at 80 g/ha (AMARE [1]; [18]): 100% | pest or weed control at 80 g/ha (ALOMY; [19]): 100% | pest or weed control at 20 g/ha (ALOMY; 20 g/ha, scored visually after 3 weeks, 100% = plants have died, 0% = like control plants): 80% | pest or weed control at 20 g/ha (MATIN [2]; dosage 20 g/ha): 100% | pest or weed control at 80 g/ha (MATIN [2]; dosage 80 g/ha): 100% | pest or weed control at 80 g/ha (VERPE [3]): 100% | pest or weed control at 20 g/ha (DIGSA [4]; dosage 20 g/ha): 90% | pest or weed control at 80 g/ha (DIGSA [4]; dosage 80 g/ha): 100% | pest or weed control at 20 g/ha (ECHCG [5]): 80% | pest or weed control at 5 g/ha (ABUTH [6]): 100% | pest or weed control at 20 g/ha (ABUTH [6]): 100% | pest or weed control at 20 g/ha (VERPE [7]): 80% | pest or weed control at 80 g/ha (PHBPU [8]): 90% | pest or weed control at 20 g/ha (VIOTR [9]; dosage 20 g/ha): 100% | pest or weed control at 80 g/ha (VIOTR [9]; dosage 80 g/ha): 100% | pest or weed control at 5 g/ha (VIOTR [10]; Viola tricolor, 504 h, 5 g/ha): 90% | pest or weed control at 20 g/ha (VIOTR [10]; Viola tricolor, 504 h, 20 g/ha): 100% | pest or weed control at 80 g/ha (AVEFA): 90% | pest or weed control at 20 g/ha (DIGSA [11]; [20]): 100% | pest or weed control at 20 g/ha (AMARE [12]; Amaranthus retroflexus, 504 h): 100% | pest or weed control at 80 g/ha (ECHCG [13]): 100% | pest or weed control at 80 g/ha (ABUTH [14]; [19]): 100% | pest or weed control at 20 g/ha (ABUTH [14]; [21]): 100% | pest or weed control at 20 g/ha (SETVI): 100% | pest or weed control at 80 g/ha (SETVI; dosage 80 g/ha): 100%

CCn1nnnc1NC(=O)c1ccc(C(F)F)c(C(=O)NC(C)C2CC2)c1Br (centres unmarked) [Example 2-340]
Pre-emergence action against AMARE in % (AMARE [1]; [17]): 100% | Pre-emergence action against AMARE in % (AMARE [1]; [19]): 100% | Pre-emergence action against MATIN in % (MATIN [2]; dosage 20 g/ha): 100% | Pre-emergence action against MATIN in % (MATIN [2]; dosage 80 g/ha): 100% | Pre-emergence action against VERPE in % (VERPE [3]): 100% | Pre-emergence action against DIGSA in % (DIGSA [4]; dosage 20 g/ha): 100% | Pre-emergence action against DIGSA in % (DIGSA [4]; dosage 80 g/ha): 100% | Post-emergence action against MATIN in % (MATIN [15]; dosage 20 g/ha): 80% | Post-emergence action against ECHCG in % (ECHCG [5]): 90% | Post-emergence action against VERPE in % (VERPE [7]): 90% | Pre-emergence action against PHBPU in % (PHBPU [8]): 80% | Pre-emergence action against VIOTR in % (VIOTR [9]; dosage 20 g/ha): 100% | Pre-emergence action against VIOTR in % (VIOTR [9]; dosage 80 g/ha): 100% | Post-emergence action against VIOTR in % (VIOTR [10]; 20 g/ha): 80% | Post-emergence action against DIGSA in % (DIGSA [11]; 5 g/ha): 80% | Post-emergence action against DIGSA (DIGSA [11]; 20 g/ha): 90% | Post-emergence action at 20 g/ha against AMARE in % (AMARE [12]): 100% | Pre-emergence action against ECHCG in % (ECHCG [13]): 100% | Post-emergence action against PHBPU in % (PHBPU [16]; dosage 20 g/ha): 80% | Pre-emergence action against ABUTH (herbicidal activity) (ABUTH [14]; [19]): 100% | Pre-emergence action against ABUTH (herbicidal activity in percent) (ABUTH [14]; [21]): 100% | Pre-emergence action against SETVI in % (SETVI; dosage 80 g/ha): 100%

CCNC(=O)c1c(C(F)(F)F)ccc(C(=O)Nc2nnnn2C)c1C1CC1 [Example 1-287]
pest or weed control at 20 g/ha (AMARE [1]; [17]): 100% | pest or weed control at 80 g/ha (AMARE [1]; [18]): 100% | pest or weed control at 20 g/ha (MATIN [2]; dosage 20 g/ha): 100% | pest or weed control at 80 g/ha (MATIN [2]; dosage 80 g/ha): 100% | pest or weed control at 80 g/ha (VERPE [3]): 90% | pest or weed control at 20 g/ha (DIGSA [4]; dosage 20 g/ha): 100% | pest or weed control at 80 g/ha (DIGSA [4]; dosage 80 g/ha): 100% | pest or weed control at 5 g/ha (MATIN [15]; Tripleurospermum inodorum, 504 h, dosage 5 g/ha): 80% | pest or weed control at 20 g/ha (MATIN [15]; Tripleurospermum inodorum, 504 h, dosage 20 g/ha): 90% | pest or weed control at 20 g/ha (ECHCG [5]): 100% | pest or weed control at 5 g/ha (ABUTH [6]): 90% | pest or weed control at 20 g/ha (ABUTH [6]): 100% | pest or weed control at 20 g/ha (VERPE [7]): 80% | pest or weed control at 80 g/ha (PHBPU [8]): 100% | pest or weed control at 20 g/ha (VIOTR [9]; dosage 20 g/ha): 100% | pest or weed control at 80 g/ha (VIOTR [9]; dosage 80 g/ha): 100% | pest or weed control at 20 g/ha (VIOTR [10]; Viola tricolor, 504 h, 20 g/ha): 80% | pest or weed control at 5 g/ha (DIGSA [11]; Digitaria sanguinalis, 504 h, 5 g/ha): 100% | pest or weed control at 20 g/ha (DIGSA [11]; [20]): 100% | pest or weed control at 80 g/ha (ECHCG [13]): 90% | pest or weed control at 5 g/ha (PHBPU [16]; Ipomoea purpurea, 504 h, dosage 5 g/ha): 90% | pest or weed control at 20 g/ha (PHBPU [16]; Ipomoea purpurea, 504 h, dosage 20 g/ha): 100% | pest or weed control at 80 g/ha (ABUTH [14]; [19]): 100% | pest or weed control at 20 g/ha (ABUTH [14]; [21]): 100% | pest or weed control at 20 g/ha (SETVI): 90% | pest or weed control at 80 g/ha (SETVI; dosage 80 g/ha): 100%
